Reference: patent US11572358B2, “Solid forms of an sGC stimulator” (Cyclerion Therapeutics, Inc., priority 2016, dated 2023)

Assay: Storage stability at 40° C. and 75% relative humidity, XRPD trace before and after
Format: physicochemical
Conditions: stored for 14 months at 40° C. and 75% relative humidity
Protocol: When comparing XRPD spectra, a spectrum will be “substantially similar” to one shown in this disclosure for a particular solid form of Compound I, wherein the characteristic peaks in said spectrum are measured at the same values of °2θ as those shown in the figure of this disclosure, or within a range of + or −0.5 units of °2θ from those peaks shown in said figure.
X-Ray Powder Diffraction traces were obtained using a D8 Advance, Bruker apparatus; using one of two Methods:
Scan 5-45° 2-theta, 0.02° step size, 1 sec per step; or
Scan 3-40° 2-theta, 0.037° step size, 1.5 sec per step

NC(=O)[C@](O)(CNc1nc(-c2cc(-c3ccon3)n(Cc3ccccc3F)n2)ncc1F)C(F)(F)F [Form B, (R)-3,3,3-trifluoro-2-(((5-fluoro-2-(1-(2-fluorobenzyl)-5-(isoxazol-3-yl)-1H-pyrazol-3-yl)pyrimidin-4-yl)amino)methyl)-2-hydroxypropanamide]
XRPD trace after storage: essentially unchanged
